Source: ChEMBL document CHEMBL4304747, “Structural Tailoring of a Novel Fluorescent IRE-1 RNase Inhibitor to Precisely Control Its Activity” (J Med Chem, 2019)
Each block holds one compound with its values, some of them ahead of it. The source made the active and inactive calls. The calls are words filed in the database; no cut-off is given here.

Legend:
[1] = molecular target: Serine/threonine-protein kinase/endoribonuclease IRE1 (Mus musculus) (UniProt Q9EQY0); assay: (§1) Binding affinity to IRE1 in mouse 5TGM1 cells assessed as inhibition of IRE1/XBP1 pathway activation by measuring reduction in XBP1s expression at 10 uM measured up to 24 hrs by immunoblot analysis; format: cell-based
[2] = species on record: Homo sapiens; assay: Cytotoxicity against human WaC3 cells assessed as growth inhibition at 20 uM measured after 1 day by XTT assay; format: functional, cell-based
[3] = species on record: Homo sapiens; assay: Cytotoxicity against human WaC3 cells assessed as growth inhibition at 20 uM measured after 3 days by XTT assay; format: functional, cell-based
[4] = molecular target: Serine/threonine-protein kinase/endoribonuclease IRE1 (Mus musculus) (UniProt Q9EQY0); assay: Binding affinity to IRE1 in mouse 5TGM1 cells assessed as inhibition of IRE1/XBP1 pathway activation by measuring reduction in XBP1s expression at 10 uM measured after 3 days by immunoblot analysis; format: cell-based
[5] = molecular target: Serine/threonine-protein kinase/endoribonuclease IRE1 (Mus musculus) (UniProt Q9EQY0); assay: Binding affinity to IRE1 in mouse 5TGM1 cells assessed as inhibition of IRE1/XBP1 pathway activation by measuring reduction in XBP1s expression at 2.5 uM measured up to 4 hrs by immunoblot analysis; format: cell-based
[6] = Stability in PBS/DMSO assessed as change in fluorescence intensity at 10 uM; format: physicochemical; conditions: buffer
[7] = Drug metabolism in RPMI media assessed as hydrolysis at measured up to 25 hrs by HPLC analysis
[8] = Stability in PBS/DMSO assessed as increase in fluorescence intensity at 10 uM; format: physicochemical; conditions: buffer
[9] = molecular target: Serine/threonine-protein kinase/endoribonuclease IRE1 (Mus musculus) (UniProt Q9EQY0); assay: Binding affinity to IRE1 in LPS-stimulated mouse primary B cells assessed as inhibition of IRE1/XBP1 pathway activation by measuring reduction in XBP1s expression at 2.5 to 5 uM measured after 2 hrs by immunoblot analysis
[10] = Drug metabolism in pH 7.4 PBS/DMSO assessed as 1,3-dioxane acetal hydrolysis measured after 48 hrs by HPLC analysis
[11] = Stability in PBS/DMSO assessed as change in fluorescence intensity at 10 uM at 460 nm; format: physicochemical; conditions: buffer
[12] = molecular target: Serine/threonine-protein kinase/endoribonuclease IRE1 (Mus musculus) (UniProt Q9EQY0); assay: as §1, with “uM preincubated for 4 hrs followed by three times compound washout and subsequent 1 mW/cm2 UV irradiation for 10 mins” for “uM”, “after 8” for “up to 24”; format: cell-based
[13] = system: 5TGM1; assay: Cytotoxicity against mouse 5TGM1 cells assessed as growth inhibition at 20 uM measured after 3 days by XTT assay; format: functional, cell-based
[14] = Drug metabolism in RPMI media assessed as 1,3-dioxane acetal hydrolysis measured after 96 hrs by HPLC analysis
[15] = system: 5TGM1; assay: Cytotoxicity against mouse 5TGM1 cells assessed as growth inhibition at 20 uM measured after 4 days by XTT assay; format: functional, cell-based
[16] = molecular target: Serine/threonine-protein kinase/endoribonuclease IRE1 (Mus musculus) (UniProt Q9EQY0); assay: Binding affinity to IRE1 in mouse 5TGM1 cells assessed as inhibition of IRE1/XBP1 pathway activation by measuring reduction in XBP1s expression at 5 uM measured after 24 hrs by immunoblot analysis; format: cell-based
[17] = Stability in PBS/DMSO assessed as compound decomposition by measuring decrease in fluorescence intensity at 10 uM measured after 48 hrs; format: physicochemical; conditions: read-out: Drug degradation
[18] = Stability in PBS/DMSO assessed as increase in fluorescence intensity at 10 uM at 365 nm light illumination by fluorescence imaging analysis
[19] = molecular target: Serine/threonine-protein kinase/endoribonuclease IRE1 (Mus musculus) (UniProt Q9EQY0); assay: Binding affinity to IRE1 in mouse 5TGM1 cells assessed as inhibition of IRE1/XBP1 pathway activation by measuring reduction in XBP1s expression at 10 uM measured after 2 days by immunoblot analysis; format: cell-based
[20] = Prodrug conversion in cytoplasm of mouse 5TGM1 cells assessed as DF07 formation by measuring increase in fluorescence intensity at 10 uM treated for 4 hrs measured 10 secs post irradiation with 50 mW DAPI filtered diode laser by confocal microscopic analysis; format: ADME, subcellular; conditions: 5tgm1, 4 h
[21] = Stability in pH 7.4 PBS/DMSO measured after 48 hrs by HPLC analysis; format: physicochemical; conditions: buffer, pH 7.4, 48 h
[22] = molecular target: Serine/threonine-protein kinase/endoribonuclease IRE1 (Mus musculus) (UniProt Q9EQY0); assay: Binding affinity to IRE1 in mouse 5TGM1 cells assessed as inhibition of IRE1/XBP1 pathway activation by measuring reduction in XBP1s expression at 10 uM irradiated with 1 mW/cm2 UV light for up to 10 mins and measured after 4 hrs by immunoblot analysis; format: cell-based
[23] = Prodrug conversion in DMSO/PBS solution assessed as DF07 formation by measuring increase in fluorescence intensity at 10 uM irradiated with 1 mW/cm2 UV light relative to control; format: ADME
[24] = Stability in RPMI media measured after 96 hrs by HPLC analysis; format: physicochemical
[25] = molecular target: Serine/threonine-protein kinase/endoribonuclease IRE1 (Mus musculus) (UniProt Q9EQY0); assay: Binding affinity to IRE1 in mouse 5TGM1 cells assessed as inhibition of IRE1/XBP1 pathway activation by measuring reduction in XBP1s expression at 10 uM measured after 4 hrs by immunoblot analysis; format: cell-based

Serine/threonine-protein kinase/endoribonuclease IRE1 (Mus musculus), sequence (Q9EQY0 whole entry): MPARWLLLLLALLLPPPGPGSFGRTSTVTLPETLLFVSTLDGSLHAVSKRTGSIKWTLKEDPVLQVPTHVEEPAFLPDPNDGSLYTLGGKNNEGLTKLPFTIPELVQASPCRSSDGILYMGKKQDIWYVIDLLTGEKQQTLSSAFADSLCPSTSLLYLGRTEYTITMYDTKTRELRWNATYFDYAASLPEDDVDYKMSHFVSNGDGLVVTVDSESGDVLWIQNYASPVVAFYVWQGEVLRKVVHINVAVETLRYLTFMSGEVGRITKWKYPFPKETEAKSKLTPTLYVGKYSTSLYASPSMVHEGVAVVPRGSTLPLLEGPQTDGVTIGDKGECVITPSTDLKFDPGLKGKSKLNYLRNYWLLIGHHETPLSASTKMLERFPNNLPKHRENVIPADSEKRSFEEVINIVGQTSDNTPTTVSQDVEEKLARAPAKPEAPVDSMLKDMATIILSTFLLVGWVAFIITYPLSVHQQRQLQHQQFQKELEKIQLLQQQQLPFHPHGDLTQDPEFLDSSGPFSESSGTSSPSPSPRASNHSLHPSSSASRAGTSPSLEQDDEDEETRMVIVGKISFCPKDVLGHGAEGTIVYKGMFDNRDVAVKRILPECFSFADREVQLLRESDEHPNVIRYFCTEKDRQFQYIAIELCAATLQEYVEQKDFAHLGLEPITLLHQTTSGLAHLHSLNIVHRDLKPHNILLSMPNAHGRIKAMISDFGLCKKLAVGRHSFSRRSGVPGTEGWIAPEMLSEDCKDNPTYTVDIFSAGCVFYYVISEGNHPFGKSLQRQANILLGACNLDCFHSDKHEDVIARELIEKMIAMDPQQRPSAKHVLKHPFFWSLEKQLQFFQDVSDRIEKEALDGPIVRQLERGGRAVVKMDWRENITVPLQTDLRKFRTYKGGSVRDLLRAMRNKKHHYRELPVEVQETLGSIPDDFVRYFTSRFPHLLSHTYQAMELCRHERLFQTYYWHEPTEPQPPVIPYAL

inhibition [1]: Active
Compound: C=CCOC(=O)N1CCc2c(c(=O)oc3c(C=O)c(O)ccc23)C1

inhibition [4]: Active | inhibition [5]: Active | Stability [6]: Unstable
Compound: COc1cc2c3c(c(=O)oc2c(/C=N/NC(C)=O)c1O)CN(C)CC3
growth inhibition (GI) [2]: Active | growth inhibition (GI) [3]: inactive

inhibition [4]: Active | inhibition [5]: Active | Stability [8]: Unstable | inhibition [9]: Active
Compound: CC(=O)N/N=C/c1c(O)ccc2c3c(c(=O)oc12)CN(C)CC3
Drug metabolism [7]: Metabolite detected | growth inhibition (GI) [3]: Active

Stability [8]: Unstable
Compound: CN1CCc2c(c(=O)oc3c(/C=N/N4CCCCC4)c(O)ccc23)C1

Stability [11]: Stable | inhibition [4]: Active | inhibition [12]: inactive
Compound: COc1cc2c3c(c(=O)oc2c(C2OCCCO2)c1O)CN(C)CC3
Drug metabolism [10]: 70% | growth inhibition (GI) [3]: Active | growth inhibition (GI) [13]: Active | Drug metabolism [14]: 70%

inhibition [4]: Active | inhibition [5]: Active | Stability [8]: Stable
Compound: CN1CCc2c(c(=O)oc3c(C4OCCCO4)c(O)ccc23)C1
growth inhibition (GI) [15]: Active | Drug metabolism [7]: Metabolite detected | growth inhibition (GI) [3]: Active | growth inhibition (GI) [13]: Active

Stability [8]: Unstable
Compound: O=c1oc2c(/C=N/N3CCCCC3)c(O)ccc2c2c1CNCC2

inhibition [16]: Active | Stability [8]: Stable | degraded at 48 h, 10 µM [17]: 60%
Compound: CC1(C)COC(c2c(O)ccc3c4c(c(=O)oc23)CNCC4)OC1

Stability [11]: Stable | inhibition [4]: Active
Compound: COc1cc2c3c(c(=O)oc2c(C2OCCCO2)c1O)CNCC3

inhibition [16]: Active | inhibition [4]: Active | degraded at 48 h, 10 µM [17]: 5.1%
Compound: O=c1oc2c(C3OCCCO3)c(O)ccc2c2c1CNCC2
growth inhibition (GI) [15]: Active

inhibition [1]: Active | Stability [8]: Stable | inhibition [19]: inactive
Compound: CN1CCc2c(c(=O)oc3c(C=O)c(O)ccc23)C1
growth inhibition (GI) [15]: Active | Stability [18]: Stable | growth inhibition (GI) [13]: Active

Compound: COc1cc2c3c(c(=O)oc2c(C2OCCCO2)c1OC(C)c1ccc(C(=O)OCC[Si](C)(C)C)cc1[N+](=O)[O-])CN(C)CC3 (stereo not given)
Drug metabolism [20]: Metabolite_Detected | Stability [21]: Stable | inhibition [12]: Active | inhibition [22]: Active | fold change (FC) [23]: 75 | Stability [24]: Stable | inhibition [25]: inactive

inhibition [1]: Active | Stability [8]: Stable | inhibition [19]: inactive
Compound: O=Cc1c(O)ccc2c3c(c(=O)oc12)CNCC3
growth inhibition (GI) [15]: Active | Stability [18]: Stable
